According to ChEMBL document CHEMBL1201862, “PubChem BioAssay data set” (2004):
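In this assay, cells in 96-well plates receive the compound at five concentrations for 48 hours. Endpoints are linearly interpolated between the surrounding concentrations. At the GI50, growth is halved.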 Active and inactive are the calls of the source. Rule as the data show it: active = GI50 up to about 1.1 µM and inactive = higher.

Experiments:
Assay in all cases: NCI anticancer screen, dose series, 48 h
SK-MEL-2 = tested on: SK-MEL-2
NCI-H226 = tested on: NCI-H226
CCRF-CEM = tested on: CCRF-CEM
OVCAR-8 = tested on: OVCAR-8
HL-60 = tested on: HL-60
A549 = tested on: A549
UACC-62 = tested on: UACC-62
SF-539 = tested on: SF-539
A498 = tested on: A498
SF-295 = tested on: SF-295
OVCAR-5 = tested on: OVCAR-5
OVCAR-3 = tested on: OVCAR-3
DMS-273 = tested on: DMS-273
ACHN = tested on: ACHN
MOLT-4 = tested on: MOLT-4
OVCAR-4 = tested on: OVCAR-4
K562 = tested on: K562
SK-OV-3 = tested on: SK-OV-3
RPMI-8226 = tested on: RPMI-8226
SK-MEL-5 = tested on: SK-MEL-5
KM12 = tested on: KM12
LOX IMVI = tested on: LOX IMVI
IGROV-1 = tested on: IGROV-1
TK-10 = tested on: TK-10
HOP-18 = tested on: HOP-18
786-0 = tested on: 786-0
SNB-75 = tested on: SNB-75
SN12C = tested on: SN12C
SR = tested on: SR
RXF 393 = tested on: RXF 393
HCT-116 = tested on: HCT-116
HCT-15 = tested on: HCT-15
SNB-78 = tested on: SNB-78
NCI-H23 = tested on: NCI-H23
HOP-92 = tested on: HOP-92
HT-29 = tested on: HT-29
M19-MEL = tested on: M19-MEL
Malme-3M = tested on: Malme-3M
COLO 205 = tested on: COLO 205
M14 = tested on: M14
LXFL 529 = tested on: LXFL 529
KM-20L2 = tested on: KM-20L2
UACC-257 = tested on: UACC-257
UO-31 = tested on: UO-31
SW-620 = tested on: SW-620
HCC 2998 = tested on: HCC 2998
EKVX = tested on: EKVX
HOP-62 = tested on: HOP-62
DMS-114 = tested on: DMS-114
U-251 = tested on: U-251
SF-268 = tested on: SF-268
XF498 = tested on: XF498
SK-MEL-28 = tested on: SK-MEL-28
CAKI-1 = tested on: CAKI-1
DLD-1 = tested on: DLD-1

**Q.** What does the source list for `O=S(=O)(N/N=C/c1ccc(Cl)c(Cl)c1)c1ccccc1`?
**A.** GI50 (SK-MEL-2): 34.2 µM (inactive); GI50 (NCI-H226): 58.5 µM (inactive); GI50 (CCRF-CEM): 48.1 µM (inactive); GI50 (OVCAR-8): 25.7 µM (inactive); GI50 (HL-60): 26.6 µM (inactive); GI50 (A549): 39.7 µM (inactive); GI50 (UACC-62): 46.2 µM (inactive); GI50 (SF-539): 44.8 µM (inactive); GI50 (A498): 26.1 µM (inactive); GI50 (SF-295): 33.9 µM (inactive); GI50 (OVCAR-5): 38.2 µM (inactive); GI50 (OVCAR-3): 24.5 µM (inactive); GI50 (DMS-273): 37.7 µM (inactive); GI50 (ACHN): 43.1 µM (inactive); GI50 (MOLT-4): 28.1 µM (inactive); GI50 (OVCAR-4): 55 µM (inactive); GI50 (K562): 33.5 µM (inactive); GI50 (SK-OV-3): 39.7 µM (inactive); GI50 (RPMI-8226): 47 µM (inactive); GI50 (SK-MEL-5): 54 µM (inactive); GI50 (KM12): 29 µM (inactive); GI50 (LOX IMVI): 43.9 µM (inactive); GI50 (IGROV-1): 33.3 µM (inactive); GI50 (TK-10): 41.7 µM (inactive); GI50 (HOP-18): 36.3 µM (inactive); GI50 (786-0): 31.8 µM (inactive); GI50 (SNB-75): 52 µM (inactive); GI50 (SN12C): 37.7 µM (inactive); GI50 (SR): 42.3 µM (inactive); GI50 (RXF 393): 18.5 µM (inactive); GI50 (HCT-116): 35.1 µM (inactive); GI50 (HCT-15): 36.1 µM; GI50 (SNB-78): 41.5 µM (inactive); GI50 (NCI-H23): 36.3 µM (inactive); GI50 (HOP-92): 9.82 µM (inactive); GI50 (HT-29): 40.1 µM (inactive); GI50 (M19-MEL): 37.3 µM (inactive); GI50 (Malme-3M): > 100 µM (inactive); GI50 (COLO 205): 21.6 µM (inactive); GI50 (M14): 60.3 µM (inactive); GI50 (LXFL 529): 30.4 µM (inactive); GI50 (KM-20L2): 62.1 µM (inactive); GI50 (UACC-257): 38.8 µM (inactive); GI50 (UO-31): 27 µM (inactive); GI50 (SW-620): 53 µM (inactive); GI50 (HCC 2998): 30.2 µM (inactive); GI50 (EKVX): 64.9 µM (inactive); GI50 (HOP-62): 35.7 µM (inactive); GI50 (DMS-114): 23.8 µM (inactive); GI50 (U-251): 33.7 µM (inactive); GI50 (SF-268): 31 µM (inactive); GI50 (XF498): 32.2 µM (inactive); GI50 (SK-MEL-28): 72.3 µM (inactive); GI50 (CAKI-1): 33.2 µM (inactive); GI50 (DLD-1): 31.3 µM (inactive)
